Data as given in patent US11613729B2, “Cortical spheroids and methods of making the same” (The Florida State University Research Foundation, Inc., priority 2019, dated 2023).

What was measured:
hybrid spheroids [1] = test: MTT assay of hybrid spheroids; assay type: cell-based, human
Description: First, an MTT assay was conducted. The spheroids of Examples 2 and 3 were incubated with 5 mg/mL 3-(4,5-Dimethylthiazol-2-yl)-2,5-diphenyltetrazolium bromide (MTT, Sigma) solution at day 7 after three cell types were co-cultured unless otherwise noted. The absorbance of the samples was measured at 500 nm using a microplate reader (Biorad, Richmond, Calif.).
The hMSCs were labeled with CellTracker Green.

iNPC-iEC-MSC spheroids = test: Spheroid fusion / aggregation kinetics (squared aspect ratio); assay type: cell-based, human
Description: To form hHA hydrogels, 1% (w/v) HA from Sigma Aldrich solution was reacted with a 5-fold molar excess amount of methacrylic anhydride (MA) from Sigma Aldrich for 15 h in the dark at 4° C. The final product was collected by precipitating the solution in 5-fold volume of ethanol twice, and was then purified by dialysis using a membrane (3.5 kDa Mw cut-off, Thermofisher) to remove unreacted reagents. The purified MA-HA was filtered, lyophilized, and stored at −20° C. until further use. Next, ^1H-NMR spectroscopy (a Bruker 500M spectrometer at […]) was used to analyze and the degree of methacrylation. For culture experiments, day 14 iEC spheroids were transferred to the wells containing day 14 iNPC spheroids, at the same time hMSCs were added into the wells at different ratios (iNPC:iEC:MSC=4:2:0, 3:2:1 2:2:2, and 1:2:3). […] The morphology of hybrid spheroids were captured over 7 days by a phase contrast microscope.
Images of spheroid fusion were captured over time by a phase contrast microscope. The captured images were converted to binary images using ImageJ software (rsb.info.nih.gov/ij) and analyzed with the “particle analysis tool”. Through particle analysis, the squared aspect ratio of contact length between the two aggregates over maximum diameter (FIG. 6A) was determined to indicate the aggregate fusion process. The inter-sphere angle was measured as the intersecting angle between the tangent lines of two contacted spheroids to the touch point. For some experiments, the number of branching points and the total tube length in the area were evaluated.

hybrid spheroids [2] = test: Neurite outgrowth of replated hybrid spheroids; assay type: cell-based, human; conditions: ROCKi Y27632 10 μM, day 21 spheroids replated three days
Description: Effects of ROCKi Y27632, Geltrex, and HA on neurogenesis of hybrid spheroids were depicted (not shown). Day 21 hybrid spheroids embedded in Geltrex (5%) or treated with ROCKi Y27632 (10 μM) were replated on 1% Geltrex-coated surface for three days. Neurite and axonal extension indicated by β-tubulin III expression was shown. Phase contrast images of axon outgrowth of day 21 spheroids were produced (not shown). Fluorescent images for day 39 spheroids: neuron marker β-tubulin III, motor neuron progenitor marker Islet-1, GABAergic neuron marker (GABA), glutamatergic neuron marker (Glutamate), cortical neuron marker (TBR1), pre-synaptic marker synapsin I and post-synaptic marker PSD95 were produced (not shown).

Description for hMSCs in fused spheroids: The hMSCs were labeled with CellTracker Green. The hybrid (iNPC-iEC-MSC) spheroids were cultured in neural differentiation media (control) or media containing the CXCR4 inhibitor AMD3100 (100 nM, Sigma) for additional 10 days [53]. The fusion kinetics and cell localization were captured over time.

## c1cc(CN2CCCNCCNCCCNCC2)ccc1CN1CCCNCCNCCCNCC1 [AMD3100]
Hybrid spheroids [1]; AMD3100 100 nM, day 24 hybrid spheroids
  MTT activity (cell proliferation): little influence on cell proliferation
hMSCs in fused spheroids; AMD3100 100 nM vs control groups
  area occupied by hMSCs: smaller than the control groups
hMSCs in fused spheroids; AMD3100 100 nM, day 4 to day 8
  aspect ratio of hMSCs (area occupied by hMSCs to total area of fused spheroids): decreased from day 4 to day 8

## C[C@@H](N)[C@H]1CC[C@H](C(=O)Nc2ccncc2)CC1 [Y27632]
Hybrid spheroids [1]; 20 μM ROCKi Y27632, 7 days of tri-culture, vs no treatment
  MTT activity: increased MTT activity
iNPC-iEC-MSC spheroids; 20 μM or 40 μM ROCKi, plateau over 7 days
  aspect ratio: 0.5-0.7
iNPC-iEC-MSC spheroids; high concentration (20 μM or 40 μM)
  tendency of two spheroids to fuse: disrupted
iNPC-iEC-MSC spheroids; low concentration of ROCKi (10 μM)
  integration of MSCs into iNPC-iEC spheroids: did not impact
Hybrid spheroids [2]
  neurite outgrowth: enhanced
